Assays:
Type in all cases: in vivo
[1] = test system: ivyleaf morningglory (Ipomoea hederacea, IPOHE); assay: Post-emerge test, greenhouse herbicide activity screening; conditions: 14 days after application; for phytotoxicity rating IPOHE: post-emerge, rating scale 0-100
In short: (§1)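 Plants grown in 10 cm pots of sandy loam mix received acetone-dissolved compounds through a moving flat-fan nozzle. Doses ranged from 15 to 1000 g ai/ha. Pre-emerge pots were seeded one day earlier, post-emerge pots 8–21 days earlier. Fourteen days on, each pot was graded 0–100 for damage.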

[2] = test system: velvetleaf (Abutilon theophrasti, ABUTH); assay: as above; conditions: 14 days after application; for phytotoxicity rating ABUTH: post-emerge, rating scale 0-100
In short: as §1

[3] = test system: redroot pigweed (Amaranthus retroflexus, AMARE); assay: as above; conditions: 14 days after application; for phytotoxicity rating AMARE: post-emerge
In short: as §1

[4] = test system: green foxtail (Setaria viridis, SETVI); assay: as above; conditions: 14 days after application; for phytotoxicity rating SETVI: post-emerge, rating scale 0-100
In short: as §1

[5] = test system: lambsquarters (Chenopodium album, CHEAL); assay: as above; conditions: 14 days after application; for phytotoxicity rating CHEAL: post-emerge, rating scale 0-100
In short: as §1

[6] = test system: sicklepod (Cassia obtusifolia, CASOB); assay: as above; conditions: 14 days after application; for phytotoxicity rating CASOB: post-emerge, rating scale 0-100
In short: as §1

[7] = test system: johnsongrass (Sorghum halepense, SORHA); assay: as above; conditions: 14 days after application; for phytotoxicity rating SORHA: post-emerge, rating scale 0-100
In short: as §1

[8] = test system: barnyardgrass (Echinochloa crus-galli, ECHCG); assay: as above; conditions: 14 days after application; for phytotoxicity rating ECHCG: post-emerge, rating scale 0-100
In short: as §1

[9] = test system: large crabgrass (Digitaria sanguinalis, DIGSA); assay: as above; conditions: 14 days after application; for phytotoxicity rating DIGSA: post-emerge, rating scale 0-100
In short: as §1

[10] = test system: ivyleaf morningglory (Ipomoea hederacea, IPOHE); assay: Pre-emerge test, greenhouse herbicide activity screening; conditions: for Pre-emerge Herbicidal Activity IPOHE (phytotoxicity rating, scale 0-100): rated 14 days after application, 0 = no damage, 100 = complete death
In short: as §1

[11] = test system: sicklepod (Cassia obtusifolia, CASOB); assay: as above; conditions: for Pre-emerge Herbicidal Activity CASOB (phytotoxicity rating, scale 0-100): rated 14 days after application, 0 = no damage, 100 = complete death
In short: as §1

[12] = test system: barnyardgrass (Echinochloa crus-galli, ECHCG); assay: as above; conditions: for Pre-emerge Herbicidal Activity ECHCG (phytotoxicity rating, scale 0-100): rated 14 days after application, 0 = no damage, 100 = complete death
In short: as §1

[13] = test system: large crabgrass (Digitaria sanguinalis, DIGSA); assay: as above; conditions: for Pre-emerge Herbicidal Activity DIGSA (phytotoxicity rating, scale 0-100): rated 14 days after application, 0 = no damage, 100 = complete death
In short: as §1

Cn1c(C(F)(F)F)cc(=O)n(-c2c(F)cc(Cl)c(O)c2N)c1=O [Compound 1-16, 3-(2-amino-4-chloro-6-fluoro-3-hydroxyphenyl)-1-methyl-6-trifluoromethyl-2,4(1H, 3H)-pyrimidinedione]
60%: pest or weed control at 250 g/ha ([5]; Chenopodium album, post-emergence, 336 h, 250 g ai/ha, phytotoxicity rating 0-100 (0 no damage, 100 complete death), read-out: Post-emerge Herbicidal Activity CHEAL)
0: Pre-emerge Herbicidal Activity IPOHE (phytotoxicity rating, scale 0-100) ([10]; 63 g ai/ha) | Pre-emerge Herbicidal Activity IPOHE (phytotoxicity rating, scale 0-100) ([10]; 250 g ai/ha) | Pre-emerge Herbicidal Activity CASOB (phytotoxicity rating, scale 0-100) ([11]; 63 g ai/ha) | Pre-emerge Herbicidal Activity CASOB (phytotoxicity rating, scale 0-100) ([11]; 250 g ai/ha) | Pre-emerge Herbicidal Activity ECHCG (phytotoxicity rating, scale 0-100) ([12]; 63 g ai/ha) | Pre-emerge Herbicidal Activity ECHCG (phytotoxicity rating, scale 0-100) ([12]; 250 g ai/ha) | Pre-emerge Herbicidal Activity DIGSA (phytotoxicity rating, scale 0-100) ([13]; 63 g ai/ha) | Pre-emerge Herbicidal Activity DIGSA (phytotoxicity rating, scale 0-100) ([13]; 250 g ai/ha)
20%: pest or weed control at 63 g/ha ([1]; Ipomoea, post-emergence, 336 h, 63 g ai/ha, phytotoxicity rating 0-100 (0 no damage, 100 complete death), read-out: Post-emerge Herbicidal Activity IPOHE)
0%: pest or weed control at 63 g/ha ([4]; Setaria viridis, post-emergence, 336 h, 63 g ai/ha, phytotoxicity rating 0-100 (0 no damage, 100 complete death), read-out: Post-emerge Herbicidal Activity SETVI) | pest or weed control at 250 g/ha ([4]; Setaria viridis, post-emergence, 336 h, 250 g ai/ha, phytotoxicity rating 0-100 (0 no damage, 100 complete death), read-out: Post-emerge Herbicidal Activity SETVI) | pest or weed control at 63 g/ha ([6]; Senna obtusifolia, post-emergence, 336 h, 63 g ai/ha, phytotoxicity rating 0-100 (0 no damage, 100 complete death), read-out: Post-emerge Herbicidal Activity CASOB) | pest or weed control at 250 g/ha ([6]; Senna obtusifolia, post-emergence, 336 h, 250 g ai/ha, phytotoxicity rating 0-100 (0 no damage, 100 complete death), read-out: Post-emerge Herbicidal Activity CASOB) | pest or weed control at 63 g/ha ([7]; Sorghum halepense, post-emergence, 336 h, 63 g ai/ha, phytotoxicity rating 0-100 (0 no damage, 100 complete death), read-out: Post-emerge Herbicidal Activity SORHA) | pest or weed control at 250 g/ha ([7]; Sorghum halepense, post-emergence, 336 h, 250 g ai/ha, phytotoxicity rating 0-100 (0 no damage, 100 complete death), read-out: Post-emerge Herbicidal Activity SORHA) | pest or weed control at 63 g/ha ([8]; Echinochloa crus-galli, post-emergence, 336 h, 63 g ai/ha, phytotoxicity rating 0-100 (0 no damage, 100 complete death), read-out: Post-emerge Herbicidal Activity ECHCG) | pest or weed control at 250 g/ha ([8]; Echinochloa crus-galli, post-emergence, 336 h, 250 g ai/ha, phytotoxicity rating 0-100 (0 no damage, 100 complete death), read-out: Post-emerge Herbicidal Activity ECHCG) | pest or weed control at 63 g/ha ([9]; Digitaria sanguinalis, post-emergence, 336 h, 63 g ai/ha, phytotoxicity rating 0-100 (0 no damage, 100 complete death), read-out: Post-emerge Herbicidal Activity DIGSA) | pest or weed control at 250 g/ha ([9]; Digitaria sanguinalis, post-emergence, 336 h, 250 g ai/ha, phytotoxicity rating 0-100 (0 no damage, 100 complete death), read-out: Post-emerge Herbicidal Activity DIGSA)
50%: pest or weed control at 250 g/ha ([1]; Ipomoea, post-emergence, 336 h, 250 g ai/ha, phytotoxicity rating 0-100 (0 no damage, 100 complete death), read-out: Post-emerge Herbicidal Activity IPOHE) | pest or weed control at 250 g/ha ([2]; Abutilon theophrasti, post-emergence, 336 h, 250 g ai/ha, phytotoxicity rating 0-100 (0 no damage, 100 complete death), read-out: Post-emerge Herbicidal Activity ABUTH)
70%: pest or weed control at 250 g/ha ([3]; Amaranthus retroflexus, post-emergence, 336 h, 250 g ai/ha, phytotoxicity rating 0-100 (0 no damage, 100 complete death), read-out: Post-emerge Herbicidal Activity AMARE)
30%: pest or weed control at 63 g/ha ([2]; Abutilon theophrasti, post-emergence, 336 h, 63 g ai/ha, phytotoxicity rating 0-100 (0 no damage, 100 complete death), read-out: Post-emerge Herbicidal Activity ABUTH) | pest or weed control at 63 g/ha ([3]; Amaranthus retroflexus, post-emergence, 336 h, 63 g ai/ha, phytotoxicity rating 0-100 (0 no damage, 100 complete death), read-out: Post-emerge Herbicidal Activity AMARE) | pest or weed control at 63 g/ha ([5]; Chenopodium album, post-emergence, 336 h, 63 g ai/ha, phytotoxicity rating 0-100 (0 no damage, 100 complete death), read-out: Post-emerge Herbicidal Activity CHEAL)

CNC(=O)N(C(=O)NC)c1c(OC)c(Cl)cc(F)c1-n1c(=O)cc(C(F)(F)F)n(C)c1=O [Compound 3-1, 3-[2-bis(methylaminocarbonyl)amino-4-chloro-6-fluoro-3-methoxyphenyl]-1-methyl-6-trifluoromethyl-2,4(1H, 3H)-pyrimidinedione]
0%: pest or weed control at 63 g/ha ([10]; Ipomoea, pre-emergence, 336 h, 63 g ai/ha, phytotoxicity rating 0-100, 14 days after application, read-out: Pre-emerge Herbicidal Activity IPOHE) | pest or weed control at 250 g/ha ([10]; Ipomoea, pre-emergence, 336 h, 250 g ai/ha, phytotoxicity rating 0-100, 14 days after application, read-out: Pre-emerge Herbicidal Activity IPOHE) | pest or weed control at 63 g/ha ([11]; Senna obtusifolia, pre-emergence, 336 h, 63 g ai/ha, phytotoxicity rating 0-100, 14 days after application, read-out: Pre-emerge Herbicidal Activity CASOB) | pest or weed control at 250 g/ha ([11]; Senna obtusifolia, pre-emergence, 336 h, 250 g ai/ha, phytotoxicity rating 0-100, 14 days after application, read-out: Pre-emerge Herbicidal Activity CASOB) | pest or weed control at 63 g/ha ([12]; Echinochloa crus-galli, pre-emergence, 336 h, 63 g ai/ha, phytotoxicity rating 0-100, 14 days after application, read-out: Pre-emerge Herbicidal Activity ECHCG) | pest or weed control at 250 g/ha ([12]; Echinochloa crus-galli, pre-emergence, 336 h, 250 g ai/ha, phytotoxicity rating 0-100, 14 days after application, read-out: Pre-emerge Herbicidal Activity ECHCG) | pest or weed control at 63 g/ha ([13]; Digitaria sanguinalis, pre-emergence, 336 h, 63 g ai/ha, phytotoxicity rating 0-100, 14 days after application, read-out: Pre-emerge Herbicidal Activity DIGSA) | pest or weed control at 250 g/ha ([13]; Digitaria sanguinalis, pre-emergence, 336 h, 250 g ai/ha, phytotoxicity rating 0-100, 14 days after application, read-out: Pre-emerge Herbicidal Activity DIGSA)
0: phytotoxicity rating IPOHE ([1]; 63 g ai/ha) | phytotoxicity rating ABUTH ([2]; 63 g ai/ha) | phytotoxicity rating ABUTH ([2]; 250 g ai/ha) | phytotoxicity rating AMARE ([3]; 63 g ai/ha, rating scale 0-100 (0 no damage, 100 complete death)) | phytotoxicity rating SETVI ([4]; 63 g ai/ha) | phytotoxicity rating SETVI ([4]; 250 g ai/ha) | phytotoxicity rating CHEAL ([5]; 63 g ai/ha) | phytotoxicity rating CASOB ([6]; 63 g ai/ha) | phytotoxicity rating CASOB ([6]; 250 g ai/ha) | phytotoxicity rating SORHA ([7]; 63 g ai/ha) | phytotoxicity rating SORHA ([7]; 250 g ai/ha) | phytotoxicity rating ECHCG ([8]; 63 g ai/ha) | phytotoxicity rating ECHCG ([8]; 250 g ai/ha) | phytotoxicity rating DIGSA ([9]; 63 g ai/ha) | phytotoxicity rating DIGSA ([9]; 250 g ai/ha)
60: phytotoxicity rating AMARE ([3]; 250 g ai/ha, rating scale 0-100) | phytotoxicity rating CHEAL ([5]; 250 g ai/ha)
30: phytotoxicity rating IPOHE ([1]; 250 g ai/ha)
